Assay results: the supplement of paper PMC5770543
± gives the standard deviation.

How the values were obtained:
[1] = system: Toxoplasma gondii RH tachyzoites; assay: % growth inhibition vs DMSO (48 h luciferase); higher = more inhibition; settings: 10 µM
[2] = system: Plasmodium falciparum 3D7; assay: % inhibition of schizont-to-ring transition vs DMSO; higher = more inhibition
Summary of the method: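 Schizont-to-ring transition inhibition is the formation of new rings relative to vehicle controls. Tightly synchronised P. falciparum schizonts at about 40–42 hours post-invasion (1% parasitemia, 2.5% hematocrit, AlbuMAX-supplemented RPMI) were treated with compound at 1, 3 or 10 µM, alongside vehicle and positive controls. After glutaraldehyde fixation, Triton permeabilisation and Hoechst 33342 staining, at least 100,000 events were counted by flow cytometry, and values are the mean of three experiments.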

[3] = system: Toxoplasma gondii RH tachyzoites; assay: plaque count per well; higher = less inhibition; extreme values may be limits of the assay; settings: 10 µM; 8-10 days
Description: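 T. gondii RH tachyzoites expressing firefly luciferase were grown in HFF monolayers for 48 h with compound. % growth inhibition at 10 µM and EC50 (2-fold dilutions from 10 µM) were read by luminescence relative to 1% DMSO; EC50 listed as 10 (not determined, <80% inhibition) is left out. Plaque assays: 50 tachyzoites per well with 10 µM compound for 8-10 days, giving plaque count and area by crystal violet/ImageJ. Egress: median time to egress after 1 µM A23187 ionophore following 24 h of 10 µM compound (DMSO ~1.8 min; >10 = no egress within 10 min).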

[4] = system: Plasmodium falciparum 3D7; assay: EC50 growth inhibition (60 h, SYBR Green); settings: stage: ring-stage start
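For % growth inhibition vs DMSO (48 h luciferase) in this document: tested in triplicate wells of 96-well plates on confluent HFF monolayers, with 1% DMSO wells as negative control in four replicates.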

Compound	% growth inhibition [1] [%]	% inhibition of schizont-to-ring transition ([2]; 1 µM) [%]	% inhibition of schizont-to-ring transition ([2]; 3 µM) [%]	% inhibition of schizont-to-ring transition ([2]; 10 µM) [%]	plaque count per well [3]	EC50 growth inhibition [4] [nM]
COc1ccc(C2C(C(=O)Nc3cccc(OC)c3)c3ccccc3C(=O)N2C2CCCCC2)cc1 (stereo not given)	13.5 ± 15	12.8	71.3	76.4	0	
CCOC(=O)C1=C(C)N=c2sc(=Cc3ccccc3O)c(=O)n2C1c1ccc(OC)c2ccccc12 (stereo not given)	4.31 ± 0.81	13.3	53.1	60.5	18	
CCCCCCc1cc2cc(-c3nc4ccccc4[nH]3)c(=Nc3ccccc3C)oc2cc1O	< 0	9.35	11.5	23.5	3	
Nc1ccn([C@@H]2O[C@H](CO)[C@@H](O)[C@H]2O)c(=O)n1	< 0	35.8	40.5	42.6	29	
CC(C)(C)c1ccc(C(=O)Nc2nc3ccccc3s2)cc1	12.1 ± 13	44.3	45.2	54.4	33	
Cc1ccc(Cn2c(N3CCC(C(=O)NCc4cccs4)CC3)nc3ccccc32)cc1	66.1 ± 3.6	47.3	68	69.8		744
Cc1ccc(-c2cc3c(SCC(=O)Nc4cc(C(F)(F)F)ccc4Cl)nccn3n2)cc1	48.6 ± 19	23.9	24.5	30.8		2140
Cn1c(=O)n(C)c2cc(CNCCNc3ccnc4cc(Cl)ccc34)ccc21	25.7 ± 41	38.4	37.2	33.7		64.8
c1ccc2cc3c(Nc4ccc(N5CCOCC5)cc4)ccnc3cc2c1	60.2 ± 14	36.9	52.5	60.8		2510
CCOc1cccc2sc(N(Cc3cccnc3)C(=O)C3CCCCC3)nc12	29.9 ± 10	35.3	38.9	56.6		4280
COc1ccc(CNC(=O)c2cc3c(=O)n4ccccc4nc3n(CCc3ccccc3)c2=N)cc1	56.9 ± 14	9.38	17.6	47		2650
CC(C)CCNCC(O)Cn1c2ccccc2c2ccccc21 (stereo not given)	77.4 ± 2.5	9.61	49.4	71.7		520
O=C1CC(O)(C(F)(F)C(F)(F)F)Oc2ccccc21 (stereo not given)	65.3 ± 2.5	5.46	15.3	47.7		3000
Cc1ccc(Nc2nc(-c3ccccn3)cs2)cc1	99.62 ± 0.17	24.9	40.7	28.2		3060
Cc1cc(Nc2ccc(Cl)cc2)n2nc(C(F)(F)F)nc2n1	62.7 ± 3.6	52.9	59.3	58.4		56.2
COc1ccccc1CNC(=O)CCn1c(=O)[nH]c2ccccc2c1=O	79.9 ± 5.7	8.85	11.5	18.6		663
CCCCOc1ccc(C(=O)Nc2cc(C)on2)cc1	< 0	4.53	20.6	35.9		5760
O=c1cc(NC2CCN(CCCc3ccccc3)CC2)c2cc(Cl)ccc2o1	22 ± 19	61.1	66.7	68.9		396
CCCCOC(=O)c1ccc(Nc2cc(C)nc3ccc(OC)cc23)cc1	69 ± 12	29	59.5	65.9		248
O=C(Nc1ccccc1O)c1ccc(-c2ccc(Cl)cc2Cl)o1	23.8 ± 5.9	28.6	26.9	48		1670
COc1ccc(-c2nc(NC(=O)CS(=O)(=O)c3ccc(F)cc3)sc2C)cc1	69.4 ± 1.6	9.86	32.3	43.6		405
CCOc1ccc(C2N(C)c3ccccc3N2C)cc1	49.6 ± 43	15.8	20.8	40.5		5840
CC(=O)c1ccc(NC(=O)CSc2nc(-c3ccccc3Cl)ns2)cc1	78.8 ± 6.6	34	71.8	76.5		412
CCC(c1ccccc1)c1nn2c(-c3cccs3)nnc2s1 (stereo not given)	67.1 ± 4.9	48.6	60	65.8		147

Compound	% growth inhibition [1] [%]	% inhibition of schizont-to-ring transition ([2]; 1 µM) [%]	% inhibition of schizont-to-ring transition ([2]; 3 µM) [%]	% inhibition of schizont-to-ring transition ([2]; 10 µM) [%]	plaque count per well [3]	EC50 growth inhibition [4] [nM]
CN(C)c1ccc(-c2nc3cc(N)ccc3[nH]2)cc1	40.4 ± 8.4	5.79	18.4	66.7		3020
CCN(CC)CCNc1ccnc2cc(Cl)ccc12	45.2 ± 3.8	73.3	75.3	77.3		21.1
CCN(CC)CCNc1ccnc2cc3ccccc3cc12	32.4 ± 7.3	23.6	49	53.2		192
COc1cccc(C=Cc2nc(=O)c3ccccc3o2)c1OC	70.48 ± 0.68	34.9	40.3	49.7		317
O=C(NNc1cc(N2CCCC2)nc(N2CCCC2)n1)c1ccccc1	27.4 ± 0.88	16.2	24.6	62.1		6540
COc1ccc(C=C2SC(=N)N(c3ccccc3OC)C2=O)cc1	58.7 ± 3.4	19.9	35.6	49.7		1370
CC1CCCCN1CCCNC(=O)c1ccc2c(c1)sc1nc(-c3ccc(F)cc3)cn12 (stereo not given)	48.7 ± 9.3	15.8	61.1	73.1		400
COC(=O)c1ccc(Cl)c2c1C1C=CCC1C(c1cccc3ccccc13)N2 (stereo not given)	55.6 ± 32	8.04	15	46.6		6220
CCOC(=O)c1c[nH]c2c(CC)cccc2c1=O	29.3 ± 36	28.5	28.8	40.9		3280
Oc1c(CN2CCN(c3ccccc3F)CC2)cc(Br)c2cccnc12	74.2 ± 13	7.79	26.8	49.7		7420
O=C(NCc1ccco1)C1CCN(S(=O)(=O)c2ccc(Br)cc2)CC1	52.8 ± 11	14.5	30.4	54.8		397
Cc1cc(C)cc(Nc2cc(C)nc3nc(C(F)(F)F)nn23)c1	53.7 ± 4	46.6	56.5	59.8		56.8
CCOc1ccc(CCNC(=O)c2cccs2)cc1OCC	72 ± 8.3	10.1	47	68.3		691
CC1CC(C)CN(C(=O)c2ccc(Cl)cc2Cl)C1 (stereo not given)	31.6 ± 5	< 0	< 0	13.8		1020
CCCN(CCC)CCCNC(=O)c1cc2c(-c3ccc(OC)c(OC)c3)nn(C)c2s1	41.4 ± 13	14.9	37.6	68		1120
CCOC(=O)c1c(C)n(-c2ccc(Cl)cc2)c2ccc(OC(=O)C=Cc3ccccc3)cc12	69.3 ± 5	5	7.44	21.6		1020
C=C(C)CCC(C)N1CCC(N2CCC(C(=O)NCCc3ccccc3)CC2)CC1 (stereo not given)	20.9 ± 16	< 0	1.71	48		3960
Cc1nc2ccccc2c(O)c1CC=C(Cl)Cl	79.46 ± 0.64	10.8	31.3	67.4		4560
CCCc1c(CC)c(=N)c2ccccc2n1C	38.7 ± 9.2	7.3	8.61	31		6030
COCCn1c(C)nc2ccccc2c1=O	57.4 ± 3.5	6.75	13.7	31.5		1520
CN(N=O)C1=C(NC2CCCCC2)C(=O)c2ccccc2C1=O	57.2 ± 5.8	33.3	57.9	65.4		1520
COc1cccc(C(=O)Nc2ccc(-c3nc4ccccc4[nH]3)cc2)c1	53.9 ± 1.5	3.81	12.6	34.9		1620
O=C(CCc1ccccc1)c1ccccc1OCC(O)CN1CCCCC1 (stereo not given)	66.1 ± 15	19	44.6	73.3		912
CCOC(=O)c1cnc2ccc(OC)cc2c1Nc1ccc(N2CCN(C)CC2)cc1	24.9 ± 43	46.5	63.7	78.1		2980

Compound	% growth inhibition [1] [%]	% inhibition of schizont-to-ring transition ([2]; 1 µM) [%]	% inhibition of schizont-to-ring transition ([2]; 3 µM) [%]	% inhibition of schizont-to-ring transition ([2]; 10 µM) [%]	plaque count per well [3]	EC50 growth inhibition [4] [nM]
CCOC(=O)c1ccc2nc(-c3ccccc3)cc(O)c2c1	72.2 ± 6	20.2	29.4	44.6		195
O=C(NC1CCCC1)c1ccc(N2CCC(NCc3cccc(C(F)(F)F)c3)CC2)cc1	74.7 ± 1.2	0.815	7.92	41.6		2010
CCOc1cc(Br)c(C(C)NC(=O)c2cccc(OC)c2)cc1OCC (stereo not given)	34.7 ± 18	29.1	67.8	78		427
CCOC(=O)c1cnc2c(C)cc(C)cc2c1Nc1ccc(OC)c(OC)c1	54.2 ± 2.2	14.7	32.9	45.1		6690
CC1CN(C(=O)c2sc3ccccc3c2Cl)CC(C)O1 (stereo not given)	74 ± 3.4	15.7	21.4	24.2		29.1
CN1CCN(c2ncnc3c2[nH]c2ccc(Cl)cc23)CC1	28.6 ± 4.2	34	43.8	54.7		894
CCOc1ccc2c(c1)CN(Cc1ccc(Cl)cc1)CO2	24.6 ± 13	< 0	11.2	31.5		3960
O=C(CCl)NCCOc1ccc(Cl)cc1Cl	66.2 ± 5.8	12.1	24.7	43.1		717
CCOc1c(Cl)cc(CNCC(O)c2ccccc2)cc1OC (stereo not given)	21.7 ± 8.2	11.2	15.1	50.5		956
COc1ccc(CCN2CCC(CN(C)Cc3cnn(-c4ccccc4)c3)CC2)cc1	63.1 ± 4.5	15.4	48.1	63.7		806
O=C(Nc1nc(-c2ccccn2)cs1)c1ccccc1Br	98.44 ± 0.08	11	13.5	34.1		2160
COc1cc2c3cc1Oc1c(OC)c(OC)cc4c1C(Cc1ccc(O)c(c1)Oc1ccc(cc1)CC3N(C)CC2)N(C)CC4 (stereo not given)	51.7 ± 6.6	0.0123	3.67	27.2		1360
CCOc1c(Br)cc(C2C(C(=O)OC)=CN(C)C=C2C(=O)OC)cc1OC	70.4 ± 17	49.6	75.9	79.6		480
CC(C)(C)c1ccc2c(c1)CN(Cc1ccc(Cl)cc1)CO2	34.1 ± 8.2	16.8	49.9	66.2		1120
Fc1ccc2[nH]c3c(NCCCN4CCOCC4)ncnc3c2c1	34.5 ± 17	3.9	32.7	53.9		466
O=C(c1ccccc1F)N(Cc1ccc(Cl)cc1)c1ccccn1	82.2 ± 3.3	2.8	7.52	13.9		5700
COc1ccc(-c2cc(=O)oc3c4c(ccc23)OCN(Cc2ccc(F)cc2)C4)cc1	63.1 ± 3.1	< 0	10	48.3		4110
COc1ccc(/C=C2/SC(=Nc3ccccc3)NC2=O)cc1	22.4 ± 12	10.4	23	53		9090
CCC(C)NCC(O)(c1ccc(Cl)cc1)c1ccc(Cl)cc1 (stereo not given)	74.6 ± 8.3	38.4	57	63.8		632
Cc1ccc2c(C)nc(Nc3nc(C)cc(-c4ccccc4)n3)nc2c1	70.4 ± 25	17.7	37.8	55.7		6670
Cc1ccc(N2C(=O)C3C(C2=O)C2(c4ccccc4)C(=O)C3(c3ccccc3)C(c3ccccc3)=C2c2ccccc2)cc1 (stereo not given)	55.5 ± 9.4	< 0	< 0	24.4		4250
COc1cc2cc(C(=O)Nc3ccccc3)c(N)nc2cc1OC	78.1 ± 1.2	8.51	35.6	57.9		847
COC(=O)c1ccc(C2C3=C(O)CC(c4ccc(F)cc4)CC3=Nc3ccccc3N2C(=O)c2ccccc2)cc1 (stereo not given)	61.3 ± 10	35.1	51.7	56		6360
